Holding throughout (assay type): biochemical
One assay deals with T1, CDK4/Cyclin D3 complex (Homo sapiens, UniProt P11802).
T1 construct: made in house; host or cells: insect cells co-infected with baculovirus vectors
The assay can be described thus: CDK4/Cyclin D assay. Conditions: 1.0 μM; combinatorial library compounds. The protocol: CDK4/Cyclin D Construct for Assay: A complex of human CDK4 and cyclin D3, or a complex of cyclin DI and a fusion protein of human CDK4 and glutathione-S-transferase (GST-CDK4), was purified using traditional biochemical chromatographic techniques from insect cells that had been co-infected with the corresponding baculovirus expression vectors.
CDK2/Cyclin A and CDK4/Cyclin D Assays
Cyclin-dependent kinase activity was measured by quantifying the enzyme-catalyzed, time-dependent incorporation of radioactive phosphate from [^32P]ATP into a recombinant fragment of the retinoblastoma protein. Unless noted otherwise, assays were performed in 96-well plates in a total volume of 50 μL, in the presence of 10 mM HEPES (N-[2-hydroxyethyl]piperazine-N′-[2-ethanesulfonic acid]) (pH 7.4), 10 mM MgCl2, 25 μM adenosine triphosphate (ATP), 1 mg/mL ovalbumin, 5 μg/mL leupeptin, 1 mM dithiothreitol, 10 mM β-glycerophosphate, 0.1 mM sodium vanadate, 1 mM sodium fluoride, 2.5 mM ethylene glycol-bis(β-aminoethyl ether)-N,N,N′N′-tetraacetic acid (EGTA), 2% (v/v) dimethylsulfoxide, and 0.03-0.2 μCi [^32P]ATP. The substrate (0.3-0.5 μg) was purified recombinant retinoblastoma protein fragment (Rb) (residues 386-928 of the native retinoblastoma protein; 62.3 kDa, containing the majority of the phosphorylation sites found in the native 106-kDa protein, as well as a tag of six histidine residues for ease of purification). Reactions were initiated with CDK2 (150 nM CDK2/Cyclin A complex) or CDK4 (50 nM CDK4/Cyclin D3 complex), incubated at 30° C., and terminated after 20 minutes by the addition of ethylenediaminetetraacetic acid EDTA) to 250 mM. The phosphorylated substrate was then captured on a nitrocellulose membrane using a 96-well filtration manifold, and unincorporated radioactivity was removed by repeated washing with 0.85% phosphoric acid. Radioactivity was quantified by exposing the dried nitrocellulose membranes to a phosphorimager. Apparent Ki values were measured by assaying enzyme activity in the presence of different compound concentrations and subtracting the background radioactivity measured in the absence of enzyme. The kinetic parameters (kcat, Km for ATP) were measured for each enzyme under the usual assay conditions by determining the dependence of initial rates on ATP concentration. The data were fit to an equation for competitive inhibition using Kaleidagraph (Synergy Software), or were fit to an equation for competitive tight-binding inhibition using the software KineTic (BioKin, Ltd.). Measured Ki values for known inhibitors against CDK4 and CDK2 agreed with published IC50 values. The specific activity of CDK4 was the same whether complexed to full-length cyclin D3 or the truncated Cyclin D3 construct; both complexes also yielded very similar Ki values for selected inhibitors.

A further assay deals with CDK2/Cyclin A complex (Homo sapiens, UniProt P24941). The assay can be described thus: CDK2/Cyclin A assay. The conditions noted are these: 1.0 μM; combinatorial library compounds. In short, it runs like this: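 Radiometric assay: 150 nM CDK2/cyclin A (insect-cell CDK2, truncated cyclin A) phosphorylates His-tagged Rb fragment (residues 386-928) with 25 μM ATP plus [32P]ATP, pH 7.4 HEPES, 2% DMSO, 30 °C for 20 min. Filter-captured product counted by phosphorimager; apparent Ki from competitive or tight-binding inhibition fits.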

Assay [1] has as its target T2, phosphorylated VEGF-R2Δ50 (FLVK-P) (Homo sapiens, UniProt P35968, DEL940-989/E990V).
T2 construct: VEGF-R2Δ50 contains residues 806-939 and 990-1171; made in house; host or cells: baculovirus/insect cells
The assay can be described thus: VEGF-R2 coupled spectrophotometric (FLVK-P) assay. The conditions noted are these: read-out: VEGF % inhibition at 20 μM, 20 μM; combinatorial library compounds. In short, it runs like this:
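Baculovirus-expressed human VEGF-R2Δ50 (residues 806-939/990-1171, E990V) was autophosphorylated with 3 mM ATP, 40 mM MgCl2 for 2 h at 4° C. ADP formation was coupled via PK/LDH to NADH oxidation, read at 340 nm, with 5.1 mM poly(E4Y1), 1 mM ATP, 25 mM MgCl2, Hepes pH 7.5. Ki came from activity across compound concentrations.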

Another assay has as its target T3, FL-CHK1 (Homo sapiens, UniProt O14757).
T3 construct: C-terminally His-tagged full-length human CHK1 (FL-CHK1); 6xHis (C); made in house; host or cells: baculovirus/insect cells
T3 sequence (O14757 1-476): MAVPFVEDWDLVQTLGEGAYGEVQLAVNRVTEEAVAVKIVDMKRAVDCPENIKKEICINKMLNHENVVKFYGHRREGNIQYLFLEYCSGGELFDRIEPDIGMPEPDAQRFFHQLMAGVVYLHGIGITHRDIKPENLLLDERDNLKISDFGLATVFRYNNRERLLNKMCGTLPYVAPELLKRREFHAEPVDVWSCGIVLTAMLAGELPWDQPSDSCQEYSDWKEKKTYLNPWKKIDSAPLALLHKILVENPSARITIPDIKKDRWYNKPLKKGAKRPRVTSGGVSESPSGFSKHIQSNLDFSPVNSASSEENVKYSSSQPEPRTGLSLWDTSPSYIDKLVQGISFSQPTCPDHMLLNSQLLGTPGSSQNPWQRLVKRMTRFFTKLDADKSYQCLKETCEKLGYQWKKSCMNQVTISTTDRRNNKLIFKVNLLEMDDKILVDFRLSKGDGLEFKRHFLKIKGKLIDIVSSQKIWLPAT
Description: CHK1 assay. The conditions noted are these: 20 μM; combinatorial library compounds. The procedure, abridged:
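Full-length human CHK1 with C-terminal 6×His tag, made in baculovirus/insect cells, 10 nM, phosphorylating 0.125 mM Syntide-2 with 0.15 mM ATP in 50 mM Tris pH 7.5, 25 mM MgCl2, 400 mM NaCl. PK/LDH-coupled NADH oxidation read at 340 nm. Ki from initial rates over varied compound concentrations.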

T1 sequence (P11802 whole entry): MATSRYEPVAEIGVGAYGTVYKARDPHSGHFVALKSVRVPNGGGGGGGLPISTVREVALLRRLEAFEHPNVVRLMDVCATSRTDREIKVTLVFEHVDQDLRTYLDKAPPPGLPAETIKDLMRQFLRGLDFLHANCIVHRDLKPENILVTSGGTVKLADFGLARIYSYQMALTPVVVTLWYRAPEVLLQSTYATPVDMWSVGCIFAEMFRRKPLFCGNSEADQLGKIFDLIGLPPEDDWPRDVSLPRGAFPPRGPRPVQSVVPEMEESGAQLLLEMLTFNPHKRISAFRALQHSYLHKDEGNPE
T1 sequence (P30281 whole entry partner): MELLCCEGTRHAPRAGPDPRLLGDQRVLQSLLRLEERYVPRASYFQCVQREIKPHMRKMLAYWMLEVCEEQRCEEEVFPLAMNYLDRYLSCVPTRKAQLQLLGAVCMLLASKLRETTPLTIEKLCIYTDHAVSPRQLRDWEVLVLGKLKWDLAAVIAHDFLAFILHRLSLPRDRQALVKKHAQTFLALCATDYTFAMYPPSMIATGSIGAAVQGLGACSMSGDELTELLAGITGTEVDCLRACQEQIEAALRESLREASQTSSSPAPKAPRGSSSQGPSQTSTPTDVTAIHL
T2 sequence (P35968 with tags, fused parts or gaps DEL940-989/E990V limits assumed): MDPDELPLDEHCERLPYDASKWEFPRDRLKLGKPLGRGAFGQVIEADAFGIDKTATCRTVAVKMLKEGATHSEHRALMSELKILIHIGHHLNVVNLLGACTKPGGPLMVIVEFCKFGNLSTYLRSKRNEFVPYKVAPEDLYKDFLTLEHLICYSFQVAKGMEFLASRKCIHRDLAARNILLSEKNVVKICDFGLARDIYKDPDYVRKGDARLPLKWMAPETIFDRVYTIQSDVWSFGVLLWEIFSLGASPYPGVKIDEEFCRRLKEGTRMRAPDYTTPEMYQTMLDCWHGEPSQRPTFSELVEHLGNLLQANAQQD

In general, inhibition refers to the relative decrease from the control value, in per cent. As for `Nc1nc(Nc2ccc(S(N)(=O)=O)cc2)sc1-c1nc(-c2cc(Br)c(Cl)s2)cs1`, the inhibition at 1 µM at CDK4/Cyclin D3 complex was 56.4%; on CDK2/Cyclin A complex it was 60.5%. Also, the inhibition at 20 µM is 6% in assay [1] and 7.9% at FL-CHK1.
On to `Nc1nc(Nc2ccc(S(N)(=O)=O)cc2)sc1-c1nc(-c2ccc(Cl)c([N+](=O)[O-])c2)cs1`, for which the inhibition at 1 µM at CDK4/Cyclin D3 complex was -28.2%; at CDK2/Cyclin A complex, 17.6%. Also, the inhibition at 20 µM in assay [1] was -2%; on FL-CHK1, 13.1%.
In the same order, the values of `Nc1nc(Nc2ccc(S(N)(=O)=O)cc2)sc1-c1nc(-c2ccc(-c3ccc(Cl)cc3Cl)o2)cs1` are 25%, 21.4%, -2% and 3.3%.
The corresponding values for `COc1ccc(-c2csc(-c3sc(Nc4ccc(S(N)(=O)=O)cc4)nc3N)n2)c(OC)c1` are -1.2%, 12.5%, 3% and -3.9%.
With `Nc1nc(Nc2ccc(S(N)(=O)=O)cc2)sc1-c1nc(-c2ccc(Cl)cc2)cs1`, the inhibition at 1 µM at CDK4/Cyclin D3 complex is 10.9%; at CDK2/Cyclin A complex, 18.5%. Further, the inhibition at 20 µM in assay [1] came out at 27%; on FL-CHK1, 4.4%.
Turning to `COc1ccc(OC)c(-c2csc(-c3sc(Nc4ccc(S(N)(=O)=O)cc4)nc3N)n2)c1`, the inhibition at 1 µM on CDK4/Cyclin D3 complex came out at 41.2%; on CDK2/Cyclin A complex, 28.4%. In addition, the inhibition at 20 µM in assay [1] is 8%; on FL-CHK1 it was -2.3%.
In the same order, the values of `CCOC(=O)c1cc(-c2csc(-c3sc(Nc4ccc(S(N)(=O)=O)cc4)nc3N)n2)on1` are -13%, 29.8%, 3% and 1.1%.
As to `Nc1nc(Nc2ccc(S(N)(=O)=O)cc2)sc1-c1nc(-c2ccccc2[N+](=O)[O-])cs1`, the inhibition at 1 µM on CDK4/Cyclin D3 complex stood at 57.8%; on CDK2/Cyclin A complex it was 55.4%. In addition, the inhibition at 20 µM was 47% in assay [1] and 25.6% at FL-CHK1.
`Nc1nc(Nc2ccc(S(N)(=O)=O)cc2)sc1-c1nc(-c2ccc([N+](=O)[O-])cc2)cs1`: the inhibition at 1 µM is -16.3% at CDK4/Cyclin D3 complex and 27.7% on CDK2/Cyclin A complex. In addition, the inhibition at 20 µM is 3% in assay [1] and 11% on FL-CHK1.
In the case of `Cc1cc(-c2csc(-c3sc(Nc4ccc(S(N)(=O)=O)cc4)nc3N)n2)ccc1Cl`, the values for the inhibition at 1 µM on CDK4/Cyclin D3 complex and at CDK2/Cyclin A complex were -28% and 8.3%, respectively. Further, the figures for the inhibition at 20 µM (in assay [1]; at FL-CHK1) were 2% and 15.9%, respectively.
The corresponding values for `N#Cc1ccc(-c2nc(-c3sc(Nc4ccc(S(N)(=O)=O)cc4)nc3N)cs2)cc1` are 16.3%, 13.3%, 13% and 3.7%.
As to `Cc1onc(-c2ccccc2)c1-c1csc(-c2sc(Nc3ccc(S(N)(=O)=O)cc3)nc2N)n1`, the inhibition at 1 µM at CDK4/Cyclin D3 complex was -3.9%; at CDK2/Cyclin A complex, -4.5%. In addition, the results for the inhibition at 20 µM (in assay [1]; at FL-CHK1) were -2% and 2.9%, respectively.
The corresponding values for `Nc1nc(Nc2ccc(S(N)(=O)=O)cc2)sc1-c1nc(-c2ccc3c(c2)OCCO3)cs1` are 31.8%, 21.4%, 29% and 20.1%.
`Nc1nc(Nc2ccc(S(N)(=O)=O)cc2)sc1-c1nc(-c2ccc(OC(=O)c3ccccc3)cc2)cs1`: the inhibition at 1 µM on CDK4/Cyclin D3 complex is -27%; at CDK2/Cyclin A complex, 20.7%. Also, the figures for the inhibition at 20 µM (in assay [1]; at FL-CHK1) were 8% and 4.4%, respectively.
In the same order, the values of `Nc1nc(Nc2ccc(S(N)(=O)=O)cc2)sc1-c1nc(-c2cc(-c3ccccc3)no2)cs1` are -0.5%, 12%, -1% and -1.2%.
With `Nc1nc(Nc2ccc(S(N)(=O)=O)cc2)sc1-c1nc(-c2cc(-c3ccc(Cl)c(Cl)c3)no2)cs1`, the inhibition at 1 µM was -31.3% on CDK4/Cyclin D3 complex and 16.1% at CDK2/Cyclin A complex. For the same compound, the results for the inhibition at 20 µM (in assay [1]; on FL-CHK1) were -5% and 0.5%, respectively.
In the same order, the values of `CC(=O)Oc1ccccc1-c1csc(-c2sc(Nc3ccc(S(N)(=O)=O)cc3)nc2N)n1` are -4.8%, 25.4%, 33% and -7.3%.
On to `Nc1nc(Nc2ccc(S(N)(=O)=O)cc2)sc1-c1nc(-c2c(Cl)cc(C(F)(F)F)cc2Cl)cs1`, for which the figures for the inhibition at 1 µM at CDK4/Cyclin D3 complex and at CDK2/Cyclin A complex were 58% and 53.9%, respectively. The inhibition at 20 µM in assay [1] came to 9%; on FL-CHK1 it was 21.7%.
In the same order, the values of `CCN(CC)c1ccc(-c2csc(-c3sc(Nc4ccc(S(N)(=O)=O)cc4)nc3N)n2)cc1` are 29.3%, 34.8%, 10% and 6.1%.
In the same order, the values of `Nc1nc(Nc2ccc(S(N)(=O)=O)cc2)sc1-c1nc(-c2csc3ccccc23)cs1` are 44.1%, 48.9%, 10% and 0.4%.
For `Cn1cc(-c2csc(-c3sc(Nc4ccc(S(N)(=O)=O)cc4)nc3N)n2)cc1C(=O)C(Cl)(Cl)Cl`, the results for the inhibition at 1 µM on CDK4/Cyclin D3 complex and at CDK2/Cyclin A complex were 14% and 23.2%, respectively. Moreover, the inhibition at 20 µM is -4% in assay [1] and 3.3% on FL-CHK1.
The corresponding values for `Nc1nc(Nc2ccc(S(N)(=O)=O)cc2)sc1-c1nc(-c2cc3cc(Cl)ccc3o2)cs1` are -15%, 16.6%, -4% and 13.6%.
The corresponding values for `Nc1nc(Nc2ccc(S(N)(=O)=O)cc2)sc1-c1nc(-c2cccc(Br)c2)cs1` are -0.3%, 17.6%, 15% and 16.4%.
